# Results reported in publication PMC9220178, “Preclinical Characterization of Antioxidant Quinolyl Nitrone QN23 as a New Candidate for the Treatment of Ischemic Stroke” (Antioxidants, 2022).
# Where two headings read alike, the source gives them in different places.
# Tests used:
# [1] = Toxicokinetics study, plasma concentration by LC-MS/MS after single i.v. bolus; type: in vivo, rat; settings: for Clast / Cmax / AUC(0-t) / C0 / clearance / Vd / k el / half-life: female Sprague Dawley rats, plasma, mean ± SE, n = 6; for Cmax / AUC(0-t) / C0 / clearance / Vd / k el / half-life: rat, iv; for AUC(0-t): read-out: AUC0–8h; for C0: read-out: C0 (initial concentration); for clearance: read-out: Cl (clearance) (converted); for Vd: read-out: Vd (volume of distribution); for k el: read-out: kel (elimination constant) (converted); for half-life: read-out: t1/2 (half-life) (converted)
# Description: (§1) For the toxicokinetics study of QN23, female Sprague Dawley rats (9–10 weeks, Envigo, Barcelona, Spain) were divided into three groups (n = 6 per group) and treated intravenously with different concentrations of QN23 (2.0, 6.0, and 18 mg/kg), in vehicle solution (ethanol/polyethylene glycol 400/saline, 1:200:60 v/v), as a single bolus of 1 mL injection at 3 mL/min. Samples of plasma were taken at 0.25, 0.5, 1, 2, 4, and 8 h after the first administration (on day 1) and QN23 concentration was determined by liquid chromatography–mass spectrometry in tandem (LC-MS/MS) analysis for pharmacokinetic study. For the determination of the toxicokinetic parameters, a noncompartmental analysis was performed using the Phoenix 64 WinNonlin software (version 8.0, Certara, Sant Louis, MO, USA). This study was carried out by Swiss BioQuant AG (Reinach, Switzerland). For the toxicity study of QN23, rats were divided into four groups (n = 5 per group) and treated intravenously with vehicle (control group) or different concentrations of QN23 (2.0, 6.0, and 18 mg/kg) as a single bolus injection in a 4-day repeated dose as described above. Pathology analyses, comprising hematology, clinical biochemistry, and coagulation, were performed, and heart, kidney, liver, and spleen necropsies were collected for macroscopic analysis. This study was carried out by Vivotecnia Research S.L (Madrid, Spain).
# [2] = tested on: female Sprague Dawley rats; assay: Toxicity study, 4-day repeated i.v. dose; type: in vivo, rat
# Description: as §1
# [3] = parameters: method as in PMID 30715875; settings: in vitro; cited from earlier work
# [4] = four-day repeated i.v. dose, 2.0, 6.0 and 18 mg/kg
# [5] = four-day repeated i.v. dose, at some doses, no treatment-related effects concluded
structure (smiles),measurement,setting,value
"COc1ccc2nc(Cl)c(/C=[N+](\[O-])C(C)(C)C)cc2c1 [QN23, (Z)-N-tert-Butyl-1-(2-chloro-6-methoxyquinolin-3-yl)methanimine Oxide]",Clast,[1]; 2.0 mg/kg single i.v. bolus,30 ± 8 ng/mL
same,Latest time after injection with quantifiable plasma concentration,[1]; 6 mg/kg single i.v. bolus,≤ 4 h
same,Clast,[1]; 6.0 mg/kg single i.v. bolus,34 ± 5 ng/mL
same,Last concentration found as share of the initial (and maximal) detected concentration,[1]; 18 mg/kg single i.v. bolus,approximately 1%
same,Clast,[1]; 18 mg/kg single i.v. bolus,49 ± 5 ng/mL
same,AUC0–8h versus dose,"[1]; 2.0, 6.0 and 18 mg/kg single i.v. bolus",increased proportional to the dose administered
same,Cmax,[1]; 2.0 mg/kg single i.v. bolus,161 ± 86 ng/mL
same,AUC(0-t),[1]; 2.0 mg/kg single i.v. bolus,160 ± 61 ng·h/mL
same,C0,[1]; 2.0 mg/kg single i.v. bolus,540 ± 186 ng/mL
same,Cmax,[1]; 6.0 mg/kg single i.v. bolus,1090 ± 371 ng/mL
same,AUC(0-t),[1]; 6.0 mg/kg single i.v. bolus,1010 ± 355 ng·h/mL
same,C0,[1]; 6.0 mg/kg single i.v. bolus,2170 ± 661 ng/mL
same,Cmax,[1]; 18 mg/kg single i.v. bolus,2570 ± 1200 ng/mL
same,AUC(0-t),[1]; 18 mg/kg single i.v. bolus,2960 ± 1290 ng·h/mL
same,C0,[1]; 18 mg/kg single i.v. bolus,4350 ± 1860 ng/mL
same,clearance,[1]; 2.0 mg/kg single i.v. bolus,73.3 mL/min
same,Vd,[1]; 2.0 mg/kg single i.v. bolus,1.26 ± 0.434 L
same,k el,[1]; 2.0 mg/kg single i.v. bolus,0.00118 s⁻¹
same,half-life,[1]; 2.0 mg/kg single i.v. bolus,9.6 ± 0.6 min
same,clearance,[1]; 6.0 mg/kg single i.v. bolus,56.7 mL/min
same,Vd,[1]; 6.0 mg/kg single i.v. bolus,1.66 ± 0.584 L
same,k el,[1]; 6.0 mg/kg single i.v. bolus,0.000931 s⁻¹
same,half-life,[1]; 6.0 mg/kg single i.v. bolus,14.4 ± 1.8 min
same,clearance,[1]; 18 mg/kg single i.v. bolus,78.1 mL/min
same,Vd,[1]; 18 mg/kg single i.v. bolus,20.4 ± 12.3 L
same,k el,[1]; 18 mg/kg single i.v. bolus,0.000347 s⁻¹
same,half-life,[1]; 18 mg/kg single i.v. bolus,67.8 ± 23.4 min
same,Tolerability of repeated intravenous administration,"[2]; 2.0, 6.0 and 18 mg/kg i.v. for four days",well tolerated
same,Treatment-related systemic signs,"[2]; 2.0, 6.0 and 18 mg/kg i.v., four-day repeated dose, compared with control group",no treatment-related systemic signs were detected
same,Absolute or relative organ weights versus control group,[2]; [4],no significant differences
same,Food intake,[2]; [4],no effects were observed
same,"Macroscopic findings at necropsy (heart, kidneys, liver, spleen)",[2]; [4],no macroscopic findings
same,"Alkaline phosphatase (ALP) level, slight variation",[2]; [5],decreased
same,"Aspartate aminotransferase (AST) level, slight variation",[2]; [5],increased
same,Hydroxyl radical (·OH) scavenging,[3],potent scavenger
